Results on 3 compounds are retold here after patent publication US11110195B2, “Esculentin 1a derivatives and uses thereof” (University of Houston System, priority 2013, dated 2021).

A word on the CC50: it is the concentration that lowers cell viability or growth by half. High values mean better tolerance by the cells, low ones harm at low concentration. The term amount remaining denotes the share of the starting amount still present when the sample was taken. Broadly, the viability is a per cent measure of how many cells are alive, often set against a control. A high value points to less harm to the cells.

Series [1] is described as follows: MTT viability assay, A549 cells. To be noted: human. As for the experimental part:
(§1) Cell viability is expressed as percentage with respect to the control (cells not treated with the peptides). Data points represent the mean of triplicate samples ±SEM. […] The levels of statistical significance between the two peptides are indicated as follows: **p<0.01, ***p<0.001.
(§2) Cells were plated in wells of a microtiter plate, at 4×10^4 cells/well in DMEM supplemented with 2 mM glutamine and 2% FBS (for A549 cells) or DMEM containing 2 mM glutamine, non-essential amino acids (NEAA), sodium pyruvate and 2% FBS (for Raw 264.7 macrophages). After overnight incubation at 37° C. in a 5% CO2 atmosphere, the medium was replaced with 100 μl fresh serum-free medium supplemented with the peptides at different concentrations. After 24 h of peptide treatment, cell viability was determined by a MTT assay.

The test system of another series is Raw 264.7 macrophages. In words: MTT viability assay, Raw 264.7 macrophages. To be noted: 256 μM (highest concentration), 24 h. As for the experimental part: as §1, §2
In series [2] the test system is A549 lung epithelial cells. Briefly: Wound healing assay, A549 lung epithelial cells. In kind it is cell-based, human. To be noted: A549 monolayer. As for the experimental part: The percentage of cell-covered area at each time point is reported on the y-axis. Control (Ctrl) represents cells not treated with the peptides. All data are the mean of at least three independent experiments ±SEM. […] Both peptides were able to stimulate the closure of the gap produced in the monolayer of A549 cells, with the optimal concentration allowing the almost complete coverage of the wound field equal to 10 μM (for the wild type peptide, FIG. 13A) or 4 μM (for the diastereomer, FIG. 13B) within approximately 24 hours or 20 hours, respectively.
As shown in FIGS. 13A-13B, Esc-1a(1-21)NH2 and its diastereomer both stimulated wound closure although at concentrations much higher than were required to induce a similar effect in human corneal epithelial cells. This may reflect cell specific differences.

Another series is described as follows: in vitro. To be noted: for Peptide Amount (%): 24 h, 37° C.; for remaining at 5 h, 0.575 mM / remaining at 24 h, 0.575 mM: human. As for the experimental part:
A total of 125 μl of a 0.92 mM solution of each peptide was incubated at 37° C. with 20 μl and 60 μl human serum. Samples were collected after 5 h and 24 h of incubation, precipitated with 200 μl methanol, and centrifuged for 2 min at 10,000 g.
The crude solution was then analyzed by high-performance liquid chromatography (HPLC) and mass spectrometry. HPLC was performed with a Vydac C18 column, and the crude solution was diluted 5 times with 0.1% trifluoroacetic acid before injection and monitored at 280 nm.

Series [3] concerns P. aeruginosa ATCC 27853 biofilm. To be noted: 2 hours treatment. As for the experimental part:
Data points are the mean±SEM of three independent experiments. The levels of statistically significant differences between the two peptides are indicated as follows *P<0.05, **P<0.01, ***P<0.001
The reference strain and the clinical isolates were grown at 37° C. in Luria-Bertani broth (LB) to mid-log phase (optical density of 0.8 at 590 nm). With the help of tweezers, silicone hydrogel narafilcon A soft CL (1-Day ACUVUE TruEye) were removed from the manufacturer's containers, and washed thrice in phosphate buffered saline (PBS). The lenses were then immersed into wells of a 24-multiwell plate, each well containing 1 mL of bacterial inoculum in 1/10 LB at a concentration of 5×10^4 colony-forming units (CFU)/mL. Noteworthy, the number of bacteria isolated from CL storage cases has been reported to range from 1 to 6×10^4 CFU/case (2, 10). Therefore, in order to reproduce a more realistic level of bacteria to which CLs can be exposed, an inoculum size of 5×10^4 CFU/mL was used for biofilm formation.
The plate was then incubated in a humidified incubator at 37° C. at 125 rpm to allow biofilm formation on the surface of both lens sides. After 20 hours of incubation, each lens was washed thrice with PBS to remove any non-adherent planktonic cells.
The lenses were then transferred into wells of a new 24-multiwell plate, each well containing serial dilutions of Esc-1a(1-21)NH2 and Esc-1a(1-21)-1cNH2 in PBS. For […] controls, the lenses were immersed in sterile PBS. The new plate was then incubated at 37° C. for 2 hours with gentle shaking (125 rpm). After peptide treatment, each lens was washed thrice in PBS and transferred into wells of another 24-multiwell plate, each well containing 350 μL of 0.5 mg/mL of 3-(4,5-dimethylthiazol-2-yl)-2,5-diphenyltetrazolium bromide (MTT, from Sigma Aldrich, Milan, Italy) in Hank's solution (136 mM NaCl; 0.34 mM Na2HPO4; 0.44 mMKH2PO4; 5.4 mM KCl; 4.1 mM NaHCO3 pH 7.2, supplemented with 5.5 mM D-glucose) as previously reported (8). The killing of biofilms was determined as a function of the inhibition of MTT reduction to insoluble formazan crystals by bacterial reductases. The plate was incubated again for 2 hours (125 rpm) at 37° C. Formazan crystals were solubilized by the addition of acidified isopropanol. During overnight incubation at room temperature the resulting purple color was absorbed by the lens. Afterward, each lens was soaked in absolute ethanol (500 μL in each well) to decolor it. Aliquots of 100 μL were finally transferred to the wells of a 96-multiwell plate and absorbance was measured at 590 nm using a microplate reader (Infine M 200, Tecan). Untreated bacterial cells in PBS were the control. Percentage of killing was calculated according to the formula: [1−(Abs of treated samples−Abs of blank/Abs of control samples-Abs of blank)][…], where the blank was the solvent PBS.

For the next series, the system named is P. aeruginosa ATCC 27853. To be noted: soluble free form, 1 μM, within 20 minutes in PBS.
The test system of a further series is HaCaT keratinocytes. From the text: Cell viability is expressed as percentage with respect to the control (cells not treated with the peptide). Data points represent the mean of triplicate samples ±SEM.
The test system of another series is HaCaT cells. Briefly: Wound healing assay, HaCaT cells. In kind it is cell-based, human. To be noted: HaCaT monolayer. As for the experimental part: The percentage of cell-covered area at each time point is reported on the y-axis. Control (Ctrl) represents cells not treated with the peptide. All data are the mean of at least three independent experiments ±SEM. […] The optimal concentration allowing gap closure was 0.25 μM.
The experimental procedure is similar to that described in Example 6 with the following two differences: (i) 40,000 cells suspended in DMEM supplemented with 4 mM glutamine and 10% FBS were seeded on each side of the ibidi culture inserts instead of 70,000 cells in KGM-2g as for corneal epithelial cells; (ii) serum-free medium was used in the wound healing assay instead of medium supplemented with 5% FBS as for corneal epithelial cells. […] Overall, the experiments indicate that Esc-1a(1-21)NH2 can stimulate wound closure in different types of mammalian cells but this is with a different kinetic or optimal concentration and thus a stereospecific mechanism involving a direct/indirect activation of different signalling transduction cascades (depending on the selected cell type) likely subtends such events.

Series [4] has as its system human telomerase immortalized corneal epithelial cells. Briefly: in vitro. As for the experimental part: Human corneal epithelial cells were incubated with varying concentrations of Esc-1a(1-21)NH2 for 24 hrs then cytotoxicity determined by MTT assay. Data are the mean of 3 independent experiments.
To determine the toxicity of Esc-1a(1-21)NH2 to human telomerase immortalized corneal epithelial cells, the following experiment was performed. The MTT (3-(4,5-Dimethylthiazole-2-yl)-2,5-diphenyltetrazolium bromide) assay measures the activity of enzymes that reduce the tetrazolium blue dye to a formazan salt. Mitochondrial reductase enzymes will reduce MTT to formazan, which can be visualized by colorimetric reaction the absorbance of which can be quantified.
MTT assay was performed on human telomerase immortalized corneal epithelial cells treated with different concentrations of the peptide for 24 hrs. The test was performed in triplicate or quadruplicate wells with concentrations of the peptide of up to 100 μM using the following protocol. On day 1, plated the telomerase immortalized epithelial cells at 10,000 cells/well in a 96 well plate. Incubated the plate at 37° C. for […] to allow the cells to attach to the plate and spread. On day 2, incubated the cells in serum free media for at least 6 hrs prior to peptide treatment. On day 3, stimulated the cells with 100, 50, 25, 10, 5, 1, 0.5 and 0.1 μM Esc-1a(1-21)NH2 in quadruplicate for 24 hrs. On day 4, added 50 μl of 0.02% Benzalkonium chloride into 4 wells as a positive control for 15 minutes. Added 50 μl of serum free media into all the other wells (total volume 100 μl). Added 10 μl of MTT stock solution into each of the well. Incubated at 37° C. for 3 hours. At the end of 3 hours purple crystals were visible under the microscope. Added 100 μl of stop solution into each well using a multichannel pipette. Pipetted up and down to dissolve all the crystals. Gently popped the bubbles using a 10 μl tip. Read plate using plate reader at 590 nm abs and 635 nm reference. Subtracted reference OD value (635) from 590 OD value and plotted graph.

Like-named read-outs stand apart in the source and are kept apart here. Non-standard residues stand in square brackets, D forms with d. Residues, ends and D or L forms follow the SMILES beside them. A value given as a limit tells only on which side of the number the result lay.

In [1], `CC[C@H](C)[C@H](NC(=O)CN)C(=O)N[C@@H](Cc1ccccc1)C(=O)N[C@@H](CO)C(=O)N[C@@H](CCCCN)C(=O)N[C@@H](CC(C)C)C(=O)N[C@@H](C)C(=O)NCC(=O)N[C@@H](CCCCN)C(=O)N[C@@H](CCCCN)C(=O)N[C@H](C(=O)N[C@@H](CCCCN)C(=O)N[C@@H](CC(N)=O)C(=O)N[C@H](CC(C)C)C(=O)N[C@@H](CC(C)C)C(=O)N[C@H](C(=O)N[C@H](CO)C(=O)NCC(=O)N[C@@H](CC(C)C)C(=O)N[C@@H](CCCCN)C(=O)NCC(N)=O)[C@@H](C)CC)[C@@H](C)CC` [Esc-1a(1-21)-1cNH2] (H-GIFSKLAGKKIKN[dL]LI[dS]GLKG-NH2; N-terminus assumed) displayed a CC50 at 24 h of over 256 µM. Further, in the series with Raw 264.7 macrophages, the “decrease in the percentage of metabolically-active cells” value is about 20%. Further, the “optimal concentration allowing almost complete coverage of the wound field” value in [2] is 4 µM. Besides, the “time to almost complete coverage of the wound field” value in series [2] (at optimal concentration) was about 20 h. In “in vitro” (10% human fresh serum), the “Peptide Amount (%)” value was determined as 45.61%; the amount remaining at 5 h, 0.575 mM stood at 63.3%; the share remaining at 24 h, 0.575 mM amounted to 45.6%. In “in vitro” (30% human fresh serum), the “Peptide Amount (%)” value is listed as 25.46%; the fraction remaining at 5 h, 0.575 mM worked out at 30.1%; the amount remaining at 24 h, 0.575 mM was 25.5%. The compound further returned a biofilm killing in series [3] (4 μM) of about 35%. Moreover, the biofilm death in [3] (16 μM) is recorded as about 80%. In series [3] (32 μM), this compound yielded a biofilm killing of about 90%. For the same compound, the killing in the series on P. aeruginosa ATCC 27853 is about 90%.

On to `CC[C@@H](C)[C@@H](NC(=O)CN)C(=O)N[C@H](Cc1ccccc1)C(=O)N[C@H](CO)C(=O)N[C@H](CCCCN)C(=O)N[C@H](CC(C)C)C(=O)N[C@H](C)C(=O)NCC(=O)N[C@H](CCCCN)C(=O)N[C@H](CCCCN)C(=O)N[C@@H](C(=O)N[C@H](CCCCN)C(=O)N[C@H](CC(N)=O)C(=O)N[C@H](CC(C)C)C(=O)N[C@H](CC(C)C)C(=O)N[C@@H](C(=O)N[C@H](CO)C(=O)NCC(=O)N[C@H](CC(C)C)C(=O)N[C@H](CCCCN)C(=O)NCC(N)=O)[C@H](C)CC)[C@H](C)CC` [all D Esc-1a(1-21)NH2] (H-G[dI][dF][dS][dK][dL][dA]G[dK][dK][dI][dK][dN][dL][dL][dI][dS]G[dL][dK]G-NH2; N-terminus assumed), for which the “reduction in the number of metabolically-active keratinocytes” value in the series on HaCaT keratinocytes (2 h treatment, 1-64 μM) is reported as “did not show any remarkable reduction”. Also, the “toxicity to HaCaT keratinocytes” value in the series with HaCaT keratinocytes (higher concentration tested, 24 h) is “did not show toxicity”. For the same compound, the “cell-covered area vs untreated control cells” value with HaCaT cells is given as “no statistically significant difference”.

Take “benzalkonium chloride [BAC, reference compound]”: the cytotoxicity in series [4] (positive control (FIG. 4)) is about 100%. The compound also registered a viability in [4] (positive control, 0.02% for 15 minutes) of 6.2%.
